Test results reported in the supplement of paper PMC10627819.

Assays:
S. aureus Newman [1] = test: Bliss interaction score (quartile over a dose matrix) (fitness difference); higher = more antagonism (negative = synergy)
In short: (§1)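 The Bliss score was calculated by subtracting the expected fitness, the product of single-drug values, from the observed fitness. OD595 at entry into stationary phase, over the plate's robust no-drug mean and capped at 1, served as the fitness readout. Single-drug values were inferred from combination data, and scores are summarised by quartiles across technical, biological and donor/recipient replicates.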

S. pneumoniae D39V [2] = test: as above
In short: as §1

S. aureus DSM 20231 [3] = test: as above
In short: as §1

B. subtilis 168 [4] = test: as above
In short: as §1

S. aureus Newman [5] = test: fitness (endpoint OD595 vs no drug) (fraction); higher = more growth; conditions: main component drawn
In short: (§2)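 With the first reading as background, OD595 was measured every 30 min for 14 h in 384-well plates kept at 37 °C and inoculated at OD595 0.01. TSB, LB Lennox or CY was the medium. Fitness is the optical density at the transition into stationary phase divided by the robust mean of no-drug control wells, with a cap of 1.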

S. aureus DSM 20231 [6] = test: as above
In short: as §2

S. pneumoniae D39V [7] = test: as above
In short: as §2

B. subtilis 168 [8] = test: as above
In short: as §2
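Throughout, for Bliss interaction score (quartile over a dose matrix): first quartile when negative (synergy) and third quartile when positive (antagonism).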

CO/N=C(\C(=O)N[C@@H]1C(=O)N2C(C(=O)O)=C(COC(C)=O)CS[C@H]12)c1csc(N)n1 [Cefotaxime] + CCCCCCCCCC(=O)N[C@@H]1[C@H]([C@@H]([C@H](O[C@H]1OC2=C3C=C4C=C2OC5=C(C=C(C=C5)[C@H]([C@H]6C(=O)N[C@@H](C7=C(C(=CC(=C7)O)OC8[C@H]([C@H]([C@@H]([C@H](O8)CO)O)O)O)C9=C(C=CC(=C9)[C@H](C(=O)N6)NC(=O)[C@@H]4NC(=O)[C@@H]1C2=CC(=CC(=C2)OC2=C(C=CC(=C2)[C@H](C(=O)N[C@H](CC2=CC(=C(O3)C=C2)Cl)C(=O)N1)N)O)O)O)C(=O)O)O[C@H]1[C@@H]([C@H]([C@@H]([C@H](O1)CO)O)O)NC(=O)C)Cl)CO)O)O [Teicoplanin]
main component drawn
Conditions	Bliss interaction score
B. subtilis 168 [4]	-0.0867
S. aureus DSM 20231 [3]	-0.0684
S. aureus Newman [1]	-0.0611
S. pneumoniae D39V [2]	-0.0543

fitness
Conditions	partner 0.1562 µg/mL	partner 0.3125 µg/mL	partner 0.62 µg/mL	partner 0.625 µg/mL	partner 1.24 µg/mL	partner 2.48 µg/mL
S. aureus DSM 20231 [6], first compound 0.078 µg/mL, main component drawn	0.791	0.828	–	0.826	–	–
S. aureus DSM 20231 [6], first compound 0.156 µg/mL, main component drawn	0.705	0.775	–	0.716	–	–
S. aureus DSM 20231 [6], first compound 0.312 µg/mL, main component drawn	0.667	0.665	–	0.663	–	–
S. aureus Newman [5], first compound 0.039 µg/mL, one replicate	–	–	0.563	–	0.614	0.405
S. aureus Newman [5], first compound 0.078 µg/mL, one replicate	–	–	0.592	–	0.531	0.203
S. aureus Newman [5], first compound 0.156 µg/mL, one replicate	–	–	0.459	–	0.487	0.094
S. aureus Newman [5], first compound 0.312 µg/mL, one replicate	–	–	0.453	–	0.436	0.0757
S. aureus Newman [5], first compound 0.625 µg/mL, one replicate	0.0055	0.0074	–	0.152	–	–
S. aureus Newman [5], first compound 1.25 µg/mL, one replicate	0.0152	0.0026	–	0.0074	–	–
S. aureus Newman [5], first compound 2.5 µg/mL, one replicate	0.0359	0.0126	–	0.0149	–	–

fitness, S. aureus Newman [5]
Conditions	first compound 0.078 µg/mL	first compound 0.156 µg/mL	first compound 0.312 µg/mL
partner 0.1562 µg/mL	0.684	0.52	0.343
partner 0.3125 µg/mL	0.672	0.498	0.356
partner 0.625 µg/mL	0.574	0.46	0.315

S. aureus DSM 20231 [6], first compound 0.039 µg/mL, one replicate, main component drawn
Conditions	fitness
partner 0.1562 µg/mL	0.672
partner 0.3125 µg/mL	0.754
partner 0.625 µg/mL	0.786

C[C@@H]1O[C@@H]1P(=O)(O)O [Fosfomycin] + CCC[C@@H]1C[C@@H](C(=O)N[C@@H]([C@H]2O[C@H](SC)[C@H](O)[C@@H](O)[C@H]2O)[C@@H](C)O)N(C)C1 [Lincomycin]
Conditions	Bliss interaction score
B. subtilis 168 [4]	0.0718
S. aureus DSM 20231 [3]	-0.158
S. aureus Newman [1]	-0.31
S. pneumoniae D39V [2]	0.0737

fitness
Conditions	partner 0.1 µg/mL	partner 0.2 µg/mL	partner 0.215 µg/mL	partner 0.4 µg/mL	partner 0.43 µg/mL	partner 0.8 µg/mL	partner 0.86 µg/mL
B. subtilis 168 [8], first compound 1.562 µg/mL	0.689	0.707	–	0.705	–	–	–
B. subtilis 168 [8], first compound 3.124 µg/mL	0.616	0.591	–	0.61	–	–	–
B. subtilis 168 [8], first compound 6.248 µg/mL	0.469	0.429	–	0.476	–	–	–
S. aureus DSM 20231 [6], first compound 0.781 µg/mL	0.645	0.508	–	0.137	–	–	–
S. aureus DSM 20231 [6], first compound 1.562 µg/mL	0.515	0.32	–	0.0482	–	–	–
S. aureus DSM 20231 [6], first compound 3.124 µg/mL	0.387	0.0895	–	0.0388	–	–	–
S. pneumoniae D39V [7], first compound 1.25 µg/mL	–	0.606	0.812	0.365	0.698	0.0632	0.499
S. pneumoniae D39V [7], first compound 2.5 µg/mL	–	0.58	0.823	0.317	0.683	0.0611	0.45
S. pneumoniae D39V [7], first compound 5 µg/mL	–	0.511	0.785	0.285	0.691	0.0462	0.394

fitness, B. subtilis 168 [8], one replicate
Conditions	first compound 1.562 µg/mL	first compound 3.124 µg/mL	first compound 6.248 µg/mL
partner 0.8 µg/mL	0.719	0.572	0.466
partner 1.6 µg/mL	0.695	0.537	0.436

C[C@@H]1O[C@@H]1P(=O)(O)O [Fosfomycin] + CCCCCCCCCC(=O)N[C@@H]1[C@H]([C@@H]([C@H](O[C@H]1OC2=C3C=C4C=C2OC5=C(C=C(C=C5)[C@H]([C@H]6C(=O)N[C@@H](C7=C(C(=CC(=C7)O)OC8[C@H]([C@H]([C@@H]([C@H](O8)CO)O)O)O)C9=C(C=CC(=C9)[C@H](C(=O)N6)NC(=O)[C@@H]4NC(=O)[C@@H]1C2=CC(=CC(=C2)OC2=C(C=CC(=C2)[C@H](C(=O)N[C@H](CC2=CC(=C(O3)C=C2)Cl)C(=O)N1)N)O)O)O)C(=O)O)O[C@H]1[C@@H]([C@H]([C@@H]([C@H](O1)CO)O)O)NC(=O)C)Cl)CO)O)O [Teicoplanin]
main component drawn
Conditions	Bliss interaction score
B. subtilis 168 [4]	-0.078
S. aureus DSM 20231 [3]	0.154
S. aureus Newman [1]	0.177
S. pneumoniae D39V [2]	0.065

fitness, S. aureus Newman [5]
Conditions	first compound 0.781 µg/mL	first compound 1.562 µg/mL	first compound 3.124 µg/mL
partner 0.1562 µg/mL	0.58	0.525	0.127
partner 0.3125 µg/mL	0.568	0.534	0.261
partner 0.625 µg/mL	0.663	0.582	0.348

fitness
Conditions	first compound 0.781 µg/mL	first compound 1.562 µg/mL	first compound 3.124 µg/mL
S. aureus DSM 20231 [6], partner 0.1562 µg/mL, main component drawn	0.863	0.698	0.538
S. aureus DSM 20231 [6], partner 0.3125 µg/mL, main component drawn	0.968	0.831	–
S. aureus DSM 20231 [6], partner 0.625 µg/mL, main component drawn	0.933	0.862	0.654
S. aureus Newman [5], partner 0.62 µg/mL, one replicate	0.715	0.682	0.522
S. aureus Newman [5], partner 1.24 µg/mL, one replicate	0.646	0.616	0.472
S. aureus Newman [5], partner 2.48 µg/mL, one replicate	0.461	0.234	0.0834
